In patent US8435978B2, “Substituted sulfonamide compounds” (Gruenenthal GmbH, priority 2006, dated 2013):

How the values were obtained:
[1] = target: T1, human B1R receptor (Homo sapiens, UniProt P46663); assay: Functional study on the bradykinin receptor 1 (B1R), FLIPR Ca2+ assay, hB1R cells; format: cell-based; settings: CHO-K1, test substance 10 μM, agonist Lys-Des-Arg9-bradykinin 0.5 nM, % inhibition compared with the maximum achievable inhibition, read-out: B1R Antagonism, human [10 μM] % Inhibition
T1 construct: host or cells: CHO K1 cells (Chinese hamster ovary), stably transfected
T1 sequence (P46663 1-353): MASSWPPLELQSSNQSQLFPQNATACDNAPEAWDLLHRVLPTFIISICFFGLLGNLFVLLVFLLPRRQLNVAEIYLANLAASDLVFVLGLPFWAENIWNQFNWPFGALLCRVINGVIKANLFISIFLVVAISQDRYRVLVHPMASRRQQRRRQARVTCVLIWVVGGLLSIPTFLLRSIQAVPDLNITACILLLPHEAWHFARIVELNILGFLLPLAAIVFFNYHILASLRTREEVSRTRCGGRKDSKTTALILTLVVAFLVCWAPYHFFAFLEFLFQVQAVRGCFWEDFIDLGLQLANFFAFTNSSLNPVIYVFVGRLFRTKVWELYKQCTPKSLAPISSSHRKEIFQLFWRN
In short: (§1)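 Readout: peak Fluo-4 Ca2+ fluorescence, FLIPR. Stable CHO K1 hB1R or rB1R cells; cpd 10 μM, 10 min preincubation, then agonist (hB1R: Lys-Des-Arg9-BK 0.5 nM; rB1R: Des-Arg9-BK 100 nM). Value = % inhibition relative to maximal achievable inhibition.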

[2] = target: T2, B1R receptor of the rat (Rattus norvegicus, UniProt P97583); assay: Functional study on the bradykinin receptor 1 (B1R), FLIPR Ca2+ assay, rB1R cells; format: cell-based; settings: CHO-K1, test substance 10 μM, agonist Des-Arg9-bradykinin 100 nM, % inhibition compared with the maximum achievable inhibition, read-out: B1R Antagonism, rat [10 μM] % Inhibition
T2 construct: host or cells: CHO K1 cells (Chinese hamster ovary), stably transfected
T2 sequence (P97583 1-337): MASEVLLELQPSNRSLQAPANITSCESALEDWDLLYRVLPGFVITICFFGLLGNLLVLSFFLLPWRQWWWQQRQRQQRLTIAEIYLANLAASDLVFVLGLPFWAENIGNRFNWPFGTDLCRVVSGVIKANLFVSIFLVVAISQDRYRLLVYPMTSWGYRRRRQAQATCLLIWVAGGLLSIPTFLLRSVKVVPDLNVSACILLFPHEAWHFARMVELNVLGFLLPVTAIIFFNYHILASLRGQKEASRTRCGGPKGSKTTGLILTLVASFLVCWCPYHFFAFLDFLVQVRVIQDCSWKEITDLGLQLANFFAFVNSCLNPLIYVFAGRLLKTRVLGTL
In short: as §1

SMILES | inhibition at 10 µM [1] | inhibition at 10 µM [2]
O=C(COCC1CCCCN1S(=O)(=O)c1c(Cl)cc(Cl)cc1Cl)N(C1CC1)C1CCN(Cc2ccccc2)CC1 (stereo not drawn) [Example 255, N-(1-benzylpiperidin-4-yl)-N-cyclopropyl-2-((1-(2,4,6-trichlorophenylsulfonyl)piperidin-2-yl)methoxy)acetamide] | 105% | 101%
COc1cc(C)c(S(=O)(=O)N2CCCC2COCC(=O)N2CCCC2c2ccccn2)c(C)c1 (stereo not drawn) [Example 271, 2-((1-(4-methoxy-2,6-dimethylphenylsulfonyl)pyrrolidin-2-yl)methoxy)-1-(2-(pyridin-2-yl)pyrrolidin-1-yl)ethanone] | 59.1% | 85.9%
COc1cc(C)c(S(=O)(=O)N2Cc3ccccc3C[C@H]2COCC(=O)N2CCC(CCN3CCCC3)CC2)c(C)c1 [Example 187, (S)-2-((2-(4-methoxy-2,6-dimethylphenylsulfonyl)-1,2,3,4-tetrahydroisoquinolin-3-yl)methoxy)-1-(4-(2-(pyrrolidin-1-yl)ethyl)piperidin-1-yl)ethanone] | 100% | 102%
O=C(COCC1CCCCN1S(=O)(=O)c1c(Cl)cccc1Cl)N1CCN(CCO)CC1 (stereo not drawn) [Example 552, 2-((1-(2,6-dichlorophenylsulfonyl)piperidin-2-yl)methoxy)-1-(4-(2-hydroxyethyl)piperazin-1-yl)ethanone] | 46.8% | 101%
COc1cc(C)c(S(=O)(=O)N2CCCC2COCC(=O)NC2CCN(Cc3ccccc3)CC2)c(C)c1 (stereo not drawn) [Example 477, N-(1-benzylpiperidin-4-yl)-2-((1-(4-methoxy-2,6-dimethylphenylsulfonyl)pyrrolidin-2-yl)methoxy)acetamide] | 94.5% | 98.8%
COc1cc(C)c(S(=O)(=O)N2CCCCC2COCC(=O)Nc2ccc(CN3CCCCC3)cc2)c(C)c1 (stereo not drawn) [Example 419, 2-((1-(4-methoxy-2,6-dimethylphenylsulfonyl)piperidin-2-yl)methoxy)-N-(4-(piperidin-1-ylmethyl)phenyl)acetamide] | 100% | 101%
COc1ccc(S(=O)(=O)N2c3ccccc3CC2COCC(=O)NCC2CCCN(Cc3ccccc3)C2)cc1 (stereo not drawn) [Example 422, N-((1-benzylpiperidin-3-yl)methyl)-2-((1-(4-methoxyphenylsulfonyl)indolin-2-yl)methoxy)acetamide] | 48% | 98.6%
COc1cc(C)c(S(=O)(=O)N2c3ccccc3CCC2COCC(=O)N2CCN(C3CCN(C)CC3)CC2)c(C)c1 (stereo not drawn) [Example 202, 2-((1-(4-methoxy-2,6-dimethylphenylsulfonyl)-1,2,3,4-tetrahydroquinolin-2-yl)methoxy)-1-(4-(1-methylpiperidin-4-yl)piperazin-1-yl)ethanone] | 104% | 99.8%
Cc1cc(C)c(S(=O)(=O)N2Cc3ccccc3CC2COCC(=O)N2CCN(CCCN(C)C)CC2)c(C)c1 (stereo not drawn) [Example 25, 1-[4-(3-dimethylamino-propyl)-piperazin-1-yl]-2-[2-(2,4,6-trimethyl-phenylsulfonyl)-1,2,3,4-tetrahydro-isoquinolin-3-ylmethoxy]-ethanone] | 91% | 80.6%
COc1cc(C)c(S(=O)(=O)N2CCCC2COCC(=O)N2CCN(CCN(C(C)C)C(C)C)CC2)c(C)c1 (stereo not drawn) [Example 270, 1-(4-(2-(diisopropylamino)ethyl)piperazin-1-yl)-2-((1-(4-methoxy-2,6-dimethylphenylsulfonyl)pyrrolidin-2-yl)methoxy)ethanone] | 104% | 93.4%
CN(C)c1ccc(C2CCCN2C(=O)COCC2CCCCN2S(=O)(=O)c2c(Cl)cccc2Cl)cc1 (stereo not drawn) [Example 528, 2-((1-(2,6-dichlorophenylsulfonyl)piperidin-2-yl)methoxy)-1-(2-(4-(dimethylamino)phenyl)pyrrolidin-1-yl)ethanone] | 88.2% | 102%
Cc1ccc(Cl)cc1N1CCN(C(=O)COCC2CCCCN2S(=O)(=O)c2c(Cl)cccc2Cl)CC1 (stereo not drawn) [Example 321, 1-(4-(5-chloro-2-methylphenyl)piperazin-1-yl)-2-((1-(2,6-dichlorophenylsulfonyl)piperidin-2-yl)methoxy)ethanone] | 41.2% | 100%
O=C(COCC1Cc2ccccc2CN1S(=O)(=O)c1ccc(Cl)cc1Cl)N1CCCC1CN1CCCCC1 (stereo not drawn) [Example 51, 2-[2-(2,4-dichloro-phenylsulfonyl)-1,2,3,4-tetrahydro-isoquinolin-3-ylmethoxy]-1-(2-piperidin-1-ylmethyl-pyrrolidin-1-yl)-ethanone] | 65.1% | 87.9%
Cc1cc(Br)cc(C)c1S(=O)(=O)N1CCCCC1COCC(=O)N1CCN(C2CCN(C)CC2)CC1 (stereo not drawn) [Example 148, 2-((1-(4-bromo-2,6-dimethylphenylsulfonyl)piperidin-2-yl)methoxy)-1-(4-(1-methylpiperidin-4-yl)piperazin-1-yl)ethanone] | 100% | 100%
COc1cc(C)c(S(=O)(=O)N2CCCCC2COCC(=O)NCCN2CCCC2)c(C)c1 (stereo not drawn) [Example 343, 2-((1-(4-methoxy-2,6-dimethylphenylsulfonyl)piperidin-2-yl)methoxy)-N-(2-(pyrrolidin-1-yl)ethyl)acetamide] | 80% | 100%
O=C(COCC1CCCCN1S(=O)(=O)c1c(Cl)cccc1Cl)N1CCCN(Cc2ccccc2)CC1 (stereo not drawn) [Example 529, 1-(4-benzyl-1,4-diazepan-1-yl)-2-((1-(2,6-dichlorophenylsulfonyl)piperidin-2-yl)methoxy)ethanone] | 106% | 101%
O=C(COCC1CCCN1S(=O)(=O)c1c(Cl)cc(Cl)cc1Cl)NCc1ccc(CN2CCCCC2)cc1 (stereo not drawn) [Example 10, N-(4-piperidin-1-ylmethyl-benzyl)-2-[1-(2,4,6-trichloro-phenylsulfonyl)-pyrrolidin-2-ylmethoxy]-acetamide] | 100% | 91.8%
COc1cc(C)c(S(=O)(=O)N2CCCCC2COCC(=O)Nc2cccnc2N2CCOCC2)c(C)c1 (stereo not drawn) [Example 395, 2-((1-(4-methoxy-2,6-dimethylphenylsulfonyl)piperidin-2-yl)methoxy)-N-(2-morpholinopyridin-3-yl)acetamide] | 12.6% | 100%
O=C(COCC1CCCN1S(=O)(=O)c1c(Cl)cc(Cl)cc1Cl)NCCN1CCCCC1 (stereo not drawn) [Example 338, N-(2-(piperidin-1-yl)ethyl)-2-((1-(2,4,6-trichlorophenylsulfonyl)pyrrolidin-2-yl)methoxy)acetamide] | 92.6% | 92.2%
CN1CCN(C2CCN(C(=O)COCC3Cc4ccccc4CN3S(=O)(=O)c3ccc(Cl)cc3Cl)CC2)CC1 (stereo not drawn) [Example 233, 2-((2-(2,4-dichlorophenylsulfonyl)-1,2,3,4-tetrahydroisoquinolin-3-yl)methoxy)-1-(4-(4-methylpiperazin-1-yl)piperidin-1-yl)ethanone] | 102% | 86.7%
COc1cc(C)c(S(=O)(=O)N2CCCCC2COCC(=O)NCc2ccccc2Oc2cnccn2)c(C)c1 (stereo not drawn) [Example 205, 2-((1-(4-methoxy-2,6-dimethylphenylsulfonyl)piperidin-2-yl)methoxy)-N-(2-(pyrazin-2-yloxy)benzyl)acetamide] | 50% | 99.7%
Cc1nccn1-c1ccc(NC(=O)COCC2CCCCN2S(=O)(=O)c2c(Cl)cccc2Cl)cc1 (stereo not drawn) [Example 527, 2-((1-(2,6-dichlorophenylsulfonyl)piperidin-2-yl)methoxy)-N-(4-(2-methyl-1H-imidazol-1-yl)phenyl)acetamide] | 97.2% | 97.3%
COc1ccc(S(=O)(=O)N2c3ccccc3CCC2COCC(=O)N2CCN(C3CCN(C)CC3)CC2)cc1 (stereo not drawn) [Example 204, 2-((1-(4-methoxyphenylsulfonyl)-1,2,3,4-tetrahydroquinolin-2-yl)methoxy)-1-(4-(1-methylpiperidin-4-yl)piperazin-1-yl)ethanone] | 105% | 99%
Cc1cc(C)c(S(=O)(=O)N2Cc3ccccc3CC2COCC(=O)NCc2ccccc2N2CCN(C)CC2)c(C)c1 (stereo not drawn) [Example 75, N-[2-(4-methyl-piperazin-1-yl)-benzyl]-2-[2-(2,4,6-trimethyl-phenylsulfonyl)-1,2,3,4-tetrahydro-isoquinolin-3-ylmethoxy]-acetamide] | 50.1% | 9.11%
